Data on 22 compounds can be found in patent US20150322051A1, “Macrocyclic picolinamides as fungicides” (Dow AgroSciences LLC, priority 2014, published 2015).

Assay [1] relates to Mycosphaerella graminicola; anamorph: Septoria tritici (SEPTTR). In words: Leaf blotch of wheat (SEPTTR) whole-plant fungicidal test. It is filed as in vivo. Conditions: Zymoseptoria tritici, topical, low volume (track spray) application, 121.5 g/H. The procedure:
(§1) All fungicides were evaluated using the aforementioned method for their activity vs. all target diseases, unless stated otherwise. Wheat leaf blotch and brown rust activity were also evaluated using track spray applications, in which case the fungicides were formulated as EC formulations, containing 0.1% Trycol 5941 in the spray solutions. Wheat plants (variety Yuma) were grown from seed in a greenhouse in 50% mineral soil/50% soil-less Metro mix until the first leaf was fully emerged, with 7-10 seedlings per pot. These plants were inoculated with an aqueous spore suspension of Septoria tritici either prior to or after fungicide treatments. After inoculation the plants were kept in 100% relative humidity (one day in a dark dew chamber followed by two to three days in a lighted dew chamber at 20° C.) to permit spores to germinate and infect the leaf. The plants were then transferred to a greenhouse set at 20° C. for disease to develop. When disease symptoms were fully expressed on the 1st leaves of untreated plants, infection levels were assessed on a scale of 0 to 100 percent disease severity. Percent disease control was calculated using the ratio of disease severity on treated plants relative to untreated plants.

The subject of assay [2] is Puccinia triticina; synonym: Puccinia recondita f. sp. tritici (PUCCRT). Description: Wheat brown rust (PUCCRT) whole-plant fungicidal test. In kind it is in vivo. Particulars: topical, low volume (track spray) application, 121.5 g/H. On the procedure:
as §1, with “plants. Wheat plants (variety Yuma) were grown from seed in a greenhouse in 50% mineral soil/50% soil-less Metro mix until the first leaf was fully emerged, with 7-10 seedlings per pot. These plants were inoculated with an aqueous spore suspension of Puccinia triticina either prior to or after fungicide treatments. […] The plants were then transferred to a greenhouse set at 24° C. for disease to develop. Fungicide formulation, application and disease assessment followed the procedures as described in the Example A.” for “plants.”

The mark [3] stands for this setting: 24 h, 1 Day Protectant, read-out: Low Volume activity at 121.5 g/H SEPTTR 1DP (% disease control rating).
The mark [4] stands for this setting: 72 h, 3 Day Curative, read-out: Low Volume activity at 121.5 g/H SEPTTR 3DC (% disease control rating).
Where [5] appears, read: 24 h, 1 Day Protectant, read-out: Low Volume activity at 121.5 g/H PUCCRT 1DP (% disease control rating).
Setting [6] is: 72 h, 3 Day Curative, read-out: Low Volume activity at 121.5 g/H PUCCRT 3DC (% disease control rating).

Where two headings read alike, the source gives them in different places.

For `COc1ccnc(C(=O)N[C@H]2CCC[C@H](CCC(C)C)[C@@H](C3CCCC3)[C@H](C)OC2=O)c1OCOC(=O)C(C)C` [Compound 44], the pest or weed control at 121.5 g/ha was greater than 70% in assay [1] (setting [3]), greater than 70% in assay [1] (setting [4]), greater than 70% in assay [2] (setting [5]) and less than 70% in assay [2] (setting [6]).
With `COc1ccnc(C(=O)N[C@H]2CCC[C@H](Cc3ccccc3)[C@@H](CCC(C)C)[C@H](C)OC2=O)c1OC(C)=O` [Compound 45], the pest or weed control at 121.5 g/ha in assay [1] (setting [3]) is greater than 70%; in assay [1] (setting [4]), greater than 70%; in assay [2] (setting [5]), greater than 70%; in assay [2] (setting [6]) it was less than 70%.
On to `CCC[C@H]1CCC[C@H](NC(=O)c2nccc(OC)c2OC(C)=O)C(=O)O[C@@H](C)[C@@H]1Cc1ccc(F)cc1` [Compound 46], for which the pest or weed control at 121.5 g/ha in assay [1] (setting [3]), in assay [1] (setting [4]), in assay [2] (setting [5]) and in assay [2] (setting [6]) was greater than 70% throughout.
Consider `COc1ccnc(C(=O)N[C@H]2CCC[C@H](Cc3ccccc3)[C@@H](CCC(C)C)[C@H](C)OC2=O)c1OCOC(C)=O` [Compound 47], for which the pest or weed control at 121.5 g/ha in assay [1] (setting [3]) was greater than 70%; in assay [1] (setting [4]), greater than 70%; in assay [2] (setting [5]) it was greater than 70%; in assay [2] (setting [6]) it was less than 70%.
Regarding `CCC[C@H]1CCC[C@H](NC(=O)c2nccc(OC)c2OCOC(C)=O)C(=O)O[C@@H](C)[C@@H]1Cc1ccc(F)cc1` [Compound 48], the pest or weed control at 121.5 g/ha in assay [1] (setting [3]), in assay [1] (setting [4]), in assay [2] (setting [5]) and in assay [2] (setting [6]) was greater than 70% throughout.
On to `COc1ccnc(C(=O)N[C@H]2CCC[C@H](Cc3ccccc3)[C@@H](CCC(C)C)[C@H](C)OC2=O)c1OC(=O)C(C)C` [Compound 49], for which the pest or weed control at 121.5 g/ha in assay [1] (setting [3]) was greater than 70%; in assay [1] (setting [4]) it was greater than 70%; in assay [2] (setting [5]), less than 70%; in assay [2] (setting [6]), less than 70%.
`COc1ccnc(C(=O)N[C@H]2CCC[C@H](Cc3ccccc3)[C@@H](CCC(C)C)[C@H](C)OC2=O)c1OCOC(=O)C(C)C` [Compound 50]: the pest or weed control at 121.5 g/ha was greater than 70% in assay [1] (setting [3]), greater than 70% in assay [1] (setting [4]), greater than 70% in assay [2] (setting [5]) and less than 70% in assay [2] (setting [6]).
As to `CCOCC(=O)OCOc1c(OC)ccnc1C(=O)N[C@H]1CCC[C@H](Cc2ccccc2)[C@@H](CCC(C)C)[C@H](C)OC1=O` [Compound 51], the pest or weed control at 121.5 g/ha is greater than 70% in assay [1] (setting [3]), greater than 70% in assay [1] (setting [4]), greater than 70% in assay [2] (setting [5]) and less than 70% in assay [2] (setting [6]).
With `COc1ccnc(C(=O)N[C@H]2CCC[C@H](Cc3ccccc3)[C@@H](c3ccccc3)[C@H](C)OC2=O)c1OCOC(C)=O` [Compound 52], the pest or weed control at 121.5 g/ha in assay [1] (setting [3]) is greater than 70%; in assay [1] (setting [4]) it was greater than 70%; in assay [2] (setting [5]), greater than 70%; in assay [2] (setting [6]), less than 70%.
In the case of `COc1ccnc(C(=O)N[C@H]2CCC[C@H](Cc3ccccc3)[C@@H](c3ccccc3)[C@H](C)OC2=O)c1OC(C)=O` [Compound 53], the pest or weed control at 121.5 g/ha was greater than 70% in assay [1] (setting [3]), greater than 70% in assay [1] (setting [4]), greater than 70% in assay [2] (setting [5]) and less than 70% in assay [2] (setting [6]).
As for `CCC[C@H]1CCC[C@H](NC(=O)c2nccc(OC)c2OCOC(C)=O)C(=O)O[C@@H](C)[C@@H]1c1ccccc1` [Compound 54], the pest or weed control at 121.5 g/ha in assay [1] (setting [3]), in assay [1] (setting [4]), in assay [2] (setting [5]) and in assay [2] (setting [6]) was greater than 70% in each case.
As for `CCC[C@H]1CCC[C@H](NC(=O)c2nccc(OC)c2OC(C)=O)C(=O)O[C@@H](C)[C@@H]1c1ccccc1` [Compound 55], the pest or weed control at 121.5 g/ha in assay [1] (setting [3]), in assay [1] (setting [4]), in assay [2] (setting [5]) and in assay [2] (setting [6]) was greater than 70% each time.
On to `COc1ccnc(C(=O)N[C@H]2CCC[C@H](CCCc3ccccc3)[C@@H](CC(C)C)[C@H](C)OC2=O)c1OC(C)=O` [Compound 56], for which the pest or weed control at 121.5 g/ha was greater than 70% in assay [1] (setting [3]), less than 70% in assay [1] (setting [4]), greater than 70% in assay [2] (setting [5]) and less than 70% in assay [2] (setting [6]).
Regarding `COc1ccnc(C(=O)N[C@H]2CCC[C@H](CCCc3ccccc3)[C@@H](Cc3ccc(OC(F)(F)F)cc3)[C@H](C)OC2=O)c1OC(C)=O` [Compound 57], the pest or weed control at 121.5 g/ha in assay [1] (setting [3]), in assay [1] (setting [4]), in assay [2] (setting [5]) and in assay [2] (setting [6]) was less than 70% in each case.
For the compound `COc1ccnc(C(=O)N[C@H]2CCC[C@H](CCCc3ccccc3)[C@@H](Cc3ccc(OC(F)(F)F)cc3)[C@H](C)OC2=O)c1OC(=O)C(C)C` [Compound 58, 4-methoxy-2-(((3S,7S,8R,9S)-9-methyl-2-oxo-7-(3-phenylpropyl)-8-(4-(trifluoromethoxy)benzyl)oxonan-3-yl)carbamoyl)pyridin-3-yl isobutyrate], the pest or weed control at 121.5 g/ha in assay [1] (setting [3]), in assay [1] (setting [4]), in assay [2] (setting [5]) and in assay [2] (setting [6]) was less than 70% in each case.
For `COc1ccnc(C(=O)N[C@H]2CCC[C@H](CCCc3ccccc3)[C@@H](Cc3ccc(OC(F)(F)F)cc3)[C@H](C)OC2=O)c1OCOC(C)=O` [Compound 59], the pest or weed control at 121.5 g/ha in assay [1] (setting [3]) was greater than 70%; in assay [1] (setting [4]) it was less than 70%; in assay [2] (setting [5]) it was greater than 70%; in assay [2] (setting [6]), less than 70%.
For the compound `COc1ccnc(C(=O)N[C@H]2CCC[C@H](CC3CC3)[C@@H](Cc3ccccc3)[C@H](C)OC2=O)c1OC(C)=O` [Compound 60], the pest or weed control at 121.5 g/ha in assay [1] (setting [3]), in assay [1] (setting [4]), in assay [2] (setting [5]) and in assay [2] (setting [6]) was greater than 70% throughout.
As for `COc1ccnc(C(=O)N[C@H]2CCC[C@H](CC3CC3)[C@@H](Cc3ccccc3)[C@H](C)OC2=O)c1OCOC(C)=O` [Compound 61], the pest or weed control at 121.5 g/ha in assay [1] (setting [3]), in assay [1] (setting [4]), in assay [2] (setting [5]) and in assay [2] (setting [6]) was greater than 70% each time.
Regarding `COc1ccnc(C(=O)N[C@H]2CCC[C@H](Cc3ccccc3)[C@@H](Cc3ccc(F)cc3)[C@H](C)OC2=O)c1OC(C)=O` [Compound 62], the pest or weed control at 121.5 g/ha was greater than 70% in assay [1] (setting [3]), greater than 70% in assay [1] (setting [4]), greater than 70% in assay [2] (setting [5]) and less than 70% in assay [2] (setting [6]).
For the compound `COc1ccnc(C(=O)N[C@H]2CCC[C@H](Cc3ccccc3)[C@@H](Cc3ccc(F)cc3)[C@H](C)OC2=O)c1OCOC(C)=O` [Compound 63], the pest or weed control at 121.5 g/ha in assay [1] (setting [3]) is greater than 70%; in assay [1] (setting [4]), greater than 70%; in assay [2] (setting [5]) it was greater than 70%; in assay [2] (setting [6]), less than 70%.
Take `COc1ccnc(C(=O)N[C@H]2CCC[C@H](Cc3ccccc3)[C@@H](Cc3ccc(F)cc3)[C@H](C)OC2=O)c1OCOC(=O)C(C)C` [Compound 64]: the pest or weed control at 121.5 g/ha is greater than 70% in assay [1] (setting [3]), greater than 70% in assay [1] (setting [4]), greater than 70% in assay [2] (setting [5]) and less than 70% in assay [2] (setting [6]).
On to `COc1ccnc(C(=O)N[C@H]2CCC[C@H](Cc3ccc(C(F)(F)F)cc3)[C@@H](Cc3ccc(OC(F)(F)F)cc3)[C@H](C)OC2=O)c1OCOC(C)=O` [Compound 65], for which the pest or weed control at 121.5 g/ha in assay [1] (setting [3]), in assay [1] (setting [4]), in assay [2] (setting [5]) and in assay [2] (setting [6]) was less than 70% each time.
